The record followed here is patent US20260306644A1, “ANTIBODY RECRUITING MOLECULES FOR THE TREATMENT OF CORONAVIRUS DISEASE-19” (priority 2023, published 2026).

Assay [1] deals with T1, SARS-CoV-2 Spike A (wild-type) (Severe acute respiratory syndrome coronavirus 2, UniProt P0DTC2).
T1 construct: purchased Meso Scale Diagnostics, LLC V-PLEX SARS-CoV-2 Panel 13 (ACE2) Kit / Panel 23 (ACE2) Kit
The assay is described as follows: MSD ACE2 competition assay (inhibition of Spike binding with ACE2, ECL), A (wild-type). Particulars: IC50 Wild Type, Wild Type Spike.

For assay [2], the target named is SARS-CoV-2 Spike protein (Severe acute respiratory syndrome coronavirus 2, UniProt P0DTC2). The assay is described as follows: Ternary binding of SARS-CoV-2 Spike protein (293T cells expressing Spike-GFP, IgG-AF647, flow cytometry). It counts as cell-based. As to conditions: 293T cells expressing Spike-GFP; IgG-AF647 10 μg/ml; repeat values/batches listed separately; read-out: SARS-CoV-2 Ternary binding EC50. The method, then: 293T cells stably expressing SARS-CoV-2 Spike-GFP protein on their surface were incubated with a concentration range of compound for 30 minutes at 37° C.-5% CO2 in Roswell Park Memorial Institute Medium (RPMI)-5% low IgG serum with 10 μg/ml IgG-Alexa Fluor® 647 (AF647). The cells were washed twice using the same medium, resuspended in phosphate-buffered saline (PBS)-1% bovine serum albumin (BSA), and acquired on Attune™ NxT Flow Cytometer. In some embodiments, mean fluorescence intensity of AF647 as well as […] AF647 positive in GFP positive gate are reported as readouts in this assay.
A general note: Flow cytometry measures light scatter and fluorescence of single cells or particles in a stream.

Values joined by “and” are separate entries in the source; they are usually repeats but may differ in a detail not shown here. Equal entries are not always repeated.

With `CC[C@H](C)[C@H](NC(=O)[C@H](CC(C)C)NC(=O)[C@H](CC(=O)O)NC(=O)[C@H](CO)NC(=O)[C@@H](NC(=O)[C@H](CCCNC(=N)N)NC(=O)[C@H](CCSC)NC(=O)[C@H](CO)NC(=O)[C@H](C)NC(=O)[C@H](CCC(=O)O)NC(=O)[C@H](C)NC(=O)[C@H](Cc1c[nH]cn1)NC(=O)CNC(=O)[C@H](CC(C)C)NC(=O)[C@H](CCC(=O)O)NC(=O)[C@H](CC(=O)O)NC(=O)[C@H](CC(C)C)NC(=O)[C@H](CC(C)C)NC(=O)[C@H](CCCNC(=N)N)NC(=O)[C@H](CCSC)NC(=O)[C@@H](NC(=O)[C@H](CCC(=O)O)NC(=O)[C@H](Cc1ccc(O)cc1)NC(=O)[C@@H](NC(=O)[C@H](CCCCN)NC(=O)[C@H](CCC(N)=O)NC(=O)[C@H](CC(C)C)NC(=O)[C@@H](NC(=O)[C@H](Cc1c[nH]c2ccccc12)NC(=O)[C@H](CCC(=O)O)NC(=O)[C@H](CCCCN)NC(=O)[C@H](CC(=O)O)NC(C)=O)[C@@H](C)CC)[C@@H](C)CC)[C@@H](C)CC)C(C)C)C(=O)N[C@@H](Cc1ccc(O)cc1)C(=O)N[C@@H](CCC(=O)O)C(=O)N[C@@H](Cc1ccccc1)C(=O)N[C@@H](CCSC)C(=O)N[C@@H](CCCCN)C(=O)N[C@@H](CCCCN)C(=O)NCC(=O)NCC(=O)NCC(=O)NCC(=O)N[C@@H](CC(=O)O)C(=O)N[C@H]1CSSC[C@@H](C(=O)N[C@H](C(=O)O)[C@@H](C)O)NC(=O)[C@H](Cc2c[nH]c3ccccc23)NC(=O)[C@H](C(C)C)NC(=O)[C@H](CC(C)C)NC(=O)[C@H](CCC(=O)O)NC(=O)CNC(=O)[C@H](CC(C)C)NC(=O)[C@H](Cc2c[nH]cn2)NC(=O)[C@H](Cc2c[nH]c3ccccc23)NC(=O)[C@H](C)NC1=O` [Compound 107], the IC50 (as a rule, the midpoint of a concentration-inhibition curve) in assay [1] was 36.2 nM. For the same compound, the EC50 (as a rule, the concentration at which the effect is half-maximal) in assay [2] is 3.1 nM and 4.5 nM.
Regarding `CC[C@H](C)[C@H](NC(=O)[C@H](CC(C)C)NC(=O)[C@H](CC(=O)O)NC(=O)[C@H](CO)NC(=O)[C@@H](NC(=O)[C@H](CCCNC(=N)N)NC(=O)[C@H](CCSC)NC(=O)[C@H](CO)NC(=O)[C@H](C)NC(=O)[C@H](CCC(=O)O)NC(=O)[C@H](C)NC(=O)[C@H](Cc1c[nH]cn1)NC(=O)CNC(=O)[C@H](CC(C)C)NC(=O)[C@H](CCC(=O)O)NC(=O)[C@H](CC(=O)O)NC(=O)[C@H](CC(C)C)NC(=O)[C@H](CC(C)C)NC(=O)[C@H](CCCNC(=N)N)NC(=O)[C@H](CCSC)NC(=O)[C@@H](NC(=O)[C@H](CCC(=O)O)NC(=O)[C@H](Cc1ccc(O)cc1)NC(=O)[C@@H](NC(=O)[C@H](CCCCN)NC(=O)[C@H](CCC(N)=O)NC(=O)[C@H](CC(C)C)NC(=O)[C@@H](NC(=O)[C@H](Cc1c[nH]c2ccccc12)NC(=O)[C@H](CCC(=O)O)NC(=O)[C@H](CCCCN)NC(=O)[C@@H](N)CC(=O)O)[C@@H](C)CC)[C@@H](C)CC)[C@@H](C)CC)C(C)C)C(=O)N[C@@H](Cc1ccc(O)cc1)C(=O)N[C@@H](CCC(=O)O)C(=O)N[C@@H](Cc1ccccc1)C(=O)N[C@@H](CCSC)C(=O)N[C@@H](CCCCN)C(=O)N[C@@H](CCCCN)C(=O)NCC(=O)N[C@@H](CCC(N)=O)C(=O)N[C@@H](C)C(=O)N1CCC[C@H]1C(=O)N[C@@H](CC(=O)O)C(=O)N[C@H]1CSSC[C@@H](C(=O)N[C@H](C(=O)O)[C@@H](C)O)NC(=O)[C@H](Cc2c[nH]c3ccccc23)NC(=O)[C@H](C(C)C)NC(=O)[C@H](CC(C)C)NC(=O)[C@H](CCC(=O)O)NC(=O)CNC(=O)[C@H](CC(C)C)NC(=O)[C@H](Cc2c[nH]cn2)NC(=O)[C@H](Cc2c[nH]c3ccccc23)NC(=O)[C@H](C)NC1=O` [Compound 108], the IC50 in assay [1] was determined as 20.6 nM. Besides, in assay [2], the EC50 was 2.7 nM and 1.9 nM.
Compound `CC[C@H](C)[C@H](NC(=O)[C@H](CC(C)C)NC(=O)[C@H](CC(=O)O)NC(=O)[C@H](CO)NC(=O)[C@@H](NC(=O)[C@H](CCCNC(=N)N)NC(=O)[C@H](CCSC)NC(=O)[C@H](CO)NC(=O)[C@H](C)NC(=O)[C@H](CCC(=O)O)NC(=O)[C@H](C)NC(=O)[C@H](Cc1c[nH]cn1)NC(=O)CNC(=O)[C@H](CC(C)C)NC(=O)[C@H](CCC(=O)O)NC(=O)[C@H](CC(=O)O)NC(=O)[C@H](CC(C)C)NC(=O)[C@H](CC(C)C)NC(=O)[C@H](CCCNC(=N)N)NC(=O)[C@H](CCSC)NC(=O)[C@@H](NC(=O)[C@H](CCC(=O)O)NC(=O)[C@H](Cc1ccc(O)cc1)NC(=O)[C@@H](NC(=O)[C@H](CCCCN)NC(=O)[C@H](CCC(N)=O)NC(=O)[C@H](CC(C)C)NC(=O)[C@@H](NC(=O)[C@H](Cc1c[nH]c2ccccc12)NC(=O)[C@H](CCC(=O)O)NC(=O)[C@H](CCCCN)NC(=O)[C@H](CC(=O)O)NC(C)=O)[C@@H](C)CC)[C@@H](C)CC)[C@@H](C)CC)C(C)C)C(=O)N[C@@H](Cc1ccc(O)cc1)C(=O)N[C@@H](CCC(=O)O)C(=O)N[C@@H](Cc1ccccc1)C(=O)N[C@@H](CCSC)C(=O)N[C@@H](CCCCN)C(=O)N[C@@H](CCCCN)C(=O)NCC(=O)N[C@@H](CCC(N)=O)C(=O)N[C@@H](C)C(=O)N1CCC[C@H]1C(=O)N[C@@H](CC(=O)O)C(=O)N[C@H]1CSSC[C@@H](C(=O)N[C@H](C(=O)O)[C@@H](C)O)NC(=O)[C@H](Cc2c[nH]c3ccccc23)NC(=O)[C@H](C(C)C)NC(=O)[C@H](CC(C)C)NC(=O)[C@H](CCC(=O)O)NC(=O)CNC(=O)[C@H](CC(C)C)NC(=O)[C@H](Cc2c[nH]cn2)NC(=O)[C@H](Cc2c[nH]c3ccccc23)NC(=O)[C@H](C)NC1=O` [Compound 109] returned an IC50 in assay [1] of 15.9 nM. In addition, the EC50 in assay [2] was 1.2 nM and 2.2 nM.
In turn, `CC[C@H](C)[C@H](NC(=O)[C@H](CC(C)C)NC(=O)[C@H](CC(=O)O)NC(=O)[C@H](CO)NC(=O)[C@@H](NC(=O)[C@H](CCCNC(=N)N)NC(=O)[C@H](CCSC)NC(=O)[C@H](CO)NC(=O)[C@H](C)NC(=O)[C@H](CCC(=O)O)NC(=O)[C@H](C)NC(=O)[C@H](Cc1c[nH]cn1)NC(=O)CNC(=O)[C@H](CC(C)C)NC(=O)[C@H](CCC(=O)O)NC(=O)[C@H](CC(=O)O)NC(=O)[C@H](CC(C)C)NC(=O)[C@H](CC(C)C)NC(=O)[C@H](CCCNC(=N)N)NC(=O)[C@H](CCSC)NC(=O)[C@@H](NC(=O)[C@H](CCC(=O)O)NC(=O)[C@H](Cc1ccc(O)cc1)NC(=O)[C@@H](NC(=O)[C@H](CCCCN)NC(=O)[C@H](CCC(N)=O)NC(=O)[C@H](CC(C)C)NC(=O)[C@@H](NC(=O)[C@H](Cc1c[nH]c2ccccc12)NC(=O)[C@H](CCC(=O)O)NC(=O)[C@H](CCCCN)NC(=O)[C@H](CC(=O)O)NC(C)=O)[C@@H](C)CC)[C@@H](C)CC)[C@@H](C)CC)C(C)C)C(=O)N[C@@H](Cc1ccc(O)cc1)C(=O)N[C@@H](CCC(=O)O)C(=O)N[C@@H](Cc1ccccc1)C(=O)N[C@@H](CCSC)C(=O)N[C@@H](CCCCN)C(=O)N[C@@H](CCCCN)C(=O)NCC(=O)N[C@@H](CC(=O)O)C(=O)N[C@H]1CSSC[C@@H](C(=O)N[C@H](C(=O)O)[C@@H](C)O)NC(=O)[C@H](Cc2c[nH]c3ccccc23)NC(=O)[C@H](C(C)C)NC(=O)[C@H](CC(C)C)NC(=O)[C@H](CCC(=O)O)NC(=O)CNC(=O)[C@H](CC(C)C)NC(=O)[C@H](Cc2c[nH]cn2)NC(=O)[C@H](Cc2c[nH]c3ccccc23)NC(=O)[C@H](C)NC1=O` [Compound 112] had an IC50 in assay [1] of 40.7 nM. Further, the EC50 in assay [2] is 0.45 nM and 0.55 nM.
